From ChEMBL document CHEMBL1156364, “Chondropsin D, a new 37-membered-ring macrolide lactam from the marine sponge Chondropsis species” (J Nat Prod, 2001) come the findings set out here.

Structures are written as SMILES. Converted amounts (≈) assume the structure as drawn.

Assay [1] deals with MOLT-4. Put plainly: Cytotoxicity against human MOLT4 cells after 2 days by XTT assay. Conditions: MOLT-4, 48 h. The format is functional, cell-based. A general note: Formazan colour is commonly taken as a measure of viable cells.
A short description of assay [2]: Cytotoxicity against human LOX cells after 2 days by XTT assay. The assay is classed as functional, cell-based. Particulars: 48 h.

As to `COC(=O)C(C)(C)C(O)C(C)C(=O)C(C)(C)/C=C/C(=O)NC(C(O)C(C)C)C(O)C(C)/C=C(\C)C(O)C(C)CCC(O)C(C)C(=O)NC1C(C)OC(=O)C(C(O)C(=O)O)NC(=O)/C=C/C=C/CC/C=C/C=C/C[C@@H]2C[C@@H](C)C[C@@H](CC(O)C(C)C(O)/C(C)=C/C(C)C(O)/C(C)=C/CC(OC(=O)CC(O)C(=O)O)C(C)C1O)O2` (some centres not stated) [CHONDROPSIN D], the IC50 (usually the concentration at which inhibition is half-maximal) in assay [1] was found to be 0.25 µg/mL (≈ 0.157 µM); in assay [2] it was 0.01 µg/mL (≈ 0.00629 µM).
